# Values joined by “and” are separate entries in the source; they are usually repeats but may differ in a detail not shown here. Identical values can stand only once.
# Tested on: 292921-168-R-J2-PDC complex spheroid growth
# Test: Anticancer human tumor 292921-168-R-J2-PDC patient-derived pancreatic carcinoma cell line growth inhibition [AhR]
# Conditions: for viability, T/C: stronger effect = lower value; for IC50: curve of compound
# Description: Multicellular complex tumor spheroid response to aryl hydrocarbon receptor antagonists in combination with a variety of drugs and investigational agents in selected tumor cell lines
# The current study was undertaken to assess response to aryl hydrocarbon receptor antagonists in combination with standard-of-care drugs and investigational agents in solid tumor complex spheroid models. Complex spheroids include a stromal component modeled by human endothelial cells (HUVEC) and fibroblasts modeled by human mesenchymal stem cells (MSCs). The concentration ranges selected for each drug and investigational agent were based upon clinically achievable concentrations if the clinical Cmax of the agent was known.
# Compounds. The drugs and investigational agents: BAY 2416964 (NSC825713), GNF351 (NSC835774), CH-223191 (NSC835775), CPI-455 (NSC825282), aza-TdCyd (NSC777586), decitabine (NSC127716), belinostat (NSC758774), entinostat (NSC756642), pevonedistat (NSC761192), tazemetostat (NSC777109), talazoparib (NSC765396), olaparib (NSC753686), selinexor (NSC780203), nedisertib (M3814, NSC802822), bortezomib (NSC756655), venetoclax (NSC766270), doxorubicin (NSC123127), elimusertib (BAY189344, NSC800525), ceralasertib (AZD6738, NSC777638), TAK-243 (NSC785004), alisertib (NSC759677), etoposide (NSC141540), topotecan (NSC609699), eribulin (NSC707389), gemcitabine (NSC613327), carboplatin (NSC241240), cisplatin (NSC119875), and SN-38 (NSC673596) were obtained from the National Cancer Institute (NCI) Developmental Therapeutics Program Chemical Repository (32). The FDA-approved anticancer drug set is available from the Developmental Therapeutics Program at https://dtp.cancer.gov/organization/dscb/obtaining/available plates.htm. […] The stock solutions were prepared in dimethyl sulfoxide (DMSO, Sigma-Aldrich, St. Louis, MO, cat. D2650), except for the platinum compounds which were prepared in saline (Quality Biological, Gaithersburg, MD, cat. 114-055-101), at 800-fold the tested concentration and stored at -70 degrees C prior to their use. All drugs and investigational agents were tested over a range starting from a high concentration at or near the clinical Cmax and decreasing in half-log increments. If the clinical Cmax for an agent had not been determined, the highest concentration tested was 10 microM (Table 1).
# Cell Culture. All cells were maintained in an incubator at 37 degrees C and 5% CO2 with 95% humidity. The PDC lines were cultured according to standard operating procedures established by the NCI PDMR (https://pdmr.cancer.gov). Briefly, all PDCs were thawed and cultured in Matrigel-coated flasks prepared with a working solution of 1X Ham's F-12 nutrient mix, without supplementation (Invitrogen, Waltham, MA, cat. 11765054), 100 U/mL penicillin-streptomycin (Invitrogen, cat. 15140122), and 2.5% Matrigel (Corning Inc., Corning, NY, cat. 354248) for the first three passages. All PDCs were cultured in complete DMEM/F-12 media containing advanced DMEM/F-12 (Invitrogen, cat. 12634028), 4.9% defined fetal bovine serum, heat inactivated (HyClone Laboratories Inc., Logan, UT, cat. SH30070.03HI), 389 ng/mL hydrocortisone (Sigma-Aldrich, cat. H4001), 9.7 ng/mL human EGF recombinant protein (Invitrogen, cat. PHG0313), 23.4 microg/mL adenine (Sigma-Aldrich, cat. A2786), 97.3 U/mL penicillin-streptomycin (Invitrogen, cat. 15140122), 1.9 mM L-glutamine (Invitrogen, cat. 25030081), and 9.7 microM Y-27632 dihydrochloride (Tocris Bioscience, Bristol, United Kingdom, cat. 1254). The PDCs were cultured in complete DMEM/F12 media without 10 microM Y-27632 dihydrochloride for at least two passages prior to the screen. The established cell lines NCI-H1341 and […] were cultured in DMEM/F-12, HEPES (Invitrogen, cat. 11330032), 5% defined fetal bovine serum (HyClone Laboratories Inc., cat. SH30070.03), ITS premix universal culture supplement [insulin (5 microg/mL), transferrin (5 microg/mL), and selenious acid (5 ng/mL)] […]
# 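Further: spheroids exposed to compounds for seven days after three days of growth.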
IC50,SMILES,"viability, T/C (compound 0.0316 µM)","viability, T/C (compound 0.1 µM)","viability, T/C (compound 0.316 µM)","viability, T/C (compound 1 µM)","viability, T/C (compound 3.16 µM)","viability, T/C (compound 10 µM)","viability, T/C (compound 0.000316 µM)","viability, T/C (compound 0.001 µM)","viability, T/C (compound 0.00316 µM)","viability, T/C (compound 0.01 µM)","viability, T/C (compound 0.000949 µM)","viability, T/C (compound 0.003 µM)","viability, T/C (compound 0.00949 µM)","viability, T/C (compound 0.03 µM)","viability, T/C (compound 0.0949 µM)","viability, T/C (compound 0.3 µM)","viability, T/C (compound 0.949 µM)","viability, T/C (compound 3 µM)"
< 31.6 nM,COc1cccc2c1C(=O)c1c(O)c3c(c(O)c1C2=O)CC(O)(C(=O)CO)CC3OC1CC(N)C(O)C(C)O1 (stereo unspecified),37.4% and 25.9% and 34.4%,26.1% and 17.6% and 21.9%,10.9% and 4.94% and 7.46%,0.32% (2×) and 0.28%,0.76% (2×) and 0.73%,2.02% and 2.08% and 3.06%,,,,,,,,,,,,
226 nM and 174 nM and 217 nM,NS(=O)(=O)OCC1CC(n2ccc3c(NC4CCc5ccccc54)ncnc32)CC1O (stereo unspecified),126% and 115% and 113%,106% and 81.2% and 99.9%,27.1% and 16.2% and 25.9%,6.6% and 3.53% and 5.82%,5.73% and 3.02% and 4.02%,5.17% and 3.01% and 3.79%,,,,,,,,,,,,
< 31.6 nM,Nc1ccn(C2OC(CO)C(O)C2(F)F)c(=O)n1 (stereo unspecified),11.7% and 10.6% and 9.71%,9.82% and 10.9% and 7.67%,9.66% and 9.32% and 10.4%,10.1% and 11.1% and 8.88%,9.41% and 11.4% and 8.79%,7.29% and 6.09% and 6.67%,,,,,,,,,,,,
> 1000 nM,Nc1ncn(C2CC(O)C(CO)O2)c(=O)n1 (stereo unspecified),95.7% and 100% and 89.4%,93.7% and 93.1% and 77.7%,86.8% and 83% and 89%,76.3% and 76.8% and 78.2%,,,,,107% and 102% and 96.8%,99.8% and 97.5% and 103%,,,,,,,,
> 300 nM,Nc1ncn(C2CC(O)C(CO)S2)c(=O)n1 (stereo unspecified),,,,,,,,,,,108% and 106% and 99.4%,111% and 90.8% and 101%,107% and 98.6% and 93.5%,90.9% and 104% and 96.8%,90.8% and 93.8% and 95.5%,88.6% and 81.2% and 78.3%,,

# More lines, now with the values behind:
SMILES,IC50,"viability, T/C (compound 0.0316 µM)","viability, T/C (compound 0.1 µM)","viability, T/C (compound 0.316 µM)","viability, T/C (compound 1 µM)","viability, T/C (compound 3.16 µM)","viability, T/C (compound 10 µM)","viability, T/C (compound 0.000316 µM)","viability, T/C (compound 0.001 µM)","viability, T/C (compound 0.00316 µM)","viability, T/C (compound 0.01 µM)","viability, T/C (compound 0.000949 µM)","viability, T/C (compound 0.003 µM)","viability, T/C (compound 0.00949 µM)","viability, T/C (compound 0.03 µM)","viability, T/C (compound 0.0949 µM)","viability, T/C (compound 0.3 µM)","viability, T/C (compound 0.949 µM)","viability, T/C (compound 3 µM)"
COc1ccc([C@@H](O)c2cc(-c3ncnc4cc(N5CCOCC5)ccc34)c(F)cc2Cl)nn1,2060 nM and 2490 nM and 2000 nM,92.7% and 96.3% and 98.8%,99.2% and 95.5% and 101%,88% and 86.4% and 84.7%,64.6% and 70.2% and 62.2%,42.2% and 44.8% and 43.1%,27.6% and 24.4% and 25.5%,,,,,,,,,,,,
Cc1cncc(-c2nc(NCCc3c[nH]c4ccccc34)c3ncn(C(C)C)c3n2)c1,,,90.8% [middle of 20 runs],89.1% [middle of 20 runs],80.5% [middle of 20 runs],,47.8% [middle of 20 runs],,,,,,,,,,,,
Cn1ncnc1C1c2n[nH]c(=O)c3cc(F)cc(c23)NC1c1ccc(F)cc1 (stereo unspecified),> 100 nM,88% and 97.5% and 90.3%,91.5% and 80.2% and 86%,,,,,101% and 103% and 106%,103% and 111% and 95.4%,96.3% and 91.7% and 97.4%,96.2% and 96.3% and 97.7%,,,,,,,,
Nc1ccccc1NC(=O)c1ccc(CNC(=O)OCc2cccnc2)cc1,267 nM and 460 nM and 151 nM,76.9% and 70.7% and 72.6%,61.6% and 61% and 53%,44.2% and 57.2% and 42.1%,38.7% and 39.4% and 26.1%,24.4% and 26.4% and 21.3%,11.8% and 10.3% and 8.62%,,,,,,,,,,,,
O=C(C=Cc1cccc(S(=O)(=O)Nc2ccccc2)c1)NO,424 nM and 553 nM and 249 nM,68.6% and 72.8% and 73.1%,60.2% and 62% and 60%,45.1% and 51.2% and 40.3%,40.8% and 41.1% and 34.5%,36.6% and 37.4% and 31.4%,3.45% and 3.29% and 1.56%,,,,,,,,,,,,
O=C(C=Cn1cnc(-c2cc(C(F)(F)F)cc(C(F)(F)F)c2)n1)NNc1cnccn1,191 nM and 154 nM and 129 nM,,,,,,,,,,,,,104% and 95% and 86.6%,97.2% and 93% and 80.9%,64.4% and 58.7% and 54.5%,39.5% and 34.5% and 32.4%,25.6% and 18.9% and 22.2%,15.2% and 10.5% and 13.3%
O=C(c1cc(Cc2n[nH]c(=O)c3ccccc23)ccc1F)N1CCN(C(=O)C2CC2)CC1,> 10000 nM,110% and 97.3% and 99.3%,110% and 100% and 95.6%,95.5% and 93.5% and 84.8%,98.6% and 97.8% and 91.6%,102% and 92.5% and 83.3%,80% and 74.5% and 68%,,,,,,,,,,,,
